Columns and labels:
[1] = Metabolism in dog liver S9 fractions; format: in vitro ADME
Description: IMMH-010 metabolism was compared in human, monkey, dog, and rat liver S9 homogenates. IMMH-010 (10 μM) was incubated with liver S9 homogenate protein (0.5 mg protein/mL) and a reduced nicotinamide adenine dinucleotide phosphate (NADPH) regenerating system in a final volume of 0.2 mL Tris-HCl buffer (50 mM, pH 7.4) containing 5 mM MgCl2. The reactions were performed in triplicate. After 2 min of preincubation at 37 °C, reactions were initiated by the addition of IMMH-010 (10 μM). The samples were collected 0, 5, 10, and 20 min after incubation, 2 volumes of acetonitrile were added to terminate the reaction. After vortexing and centrifugation, IMMH-010, YPD-29B, M3, and M4 in the supernatant were analyzed by LC-MS/MS.
(§1) All statistics were calculated using GraphPad Prism 8.0 software (San Diego, CA, USA) designed for one-way ANOVA. Pharmacokinetic parameters were calculated with a non-compartmental analysis using WinNonlin Version 6.3 (Pharsight, Mountain View, CA, USA). ADMET predictor V10.0 (Simulations Plus, Inc., Lancaster, CA, USA) and Microsoft Excel (Microsoft, Redmond, WA, USA) were used to process the data (i.e., half-life (t1/2) and hepatic clearance (CLhep) determination). Data were expressed as means ± standard deviations (SD). Results were considered statistically significant if the p-value <0.05, <0.01 and <0.001.

MC38 colon carcinoma = assay: Antitumor activity in MC38 colon carcinoma xenograft model; format: in vivo, mouse
Description: The antitumor activity of IMMH-010 was evaluated by B16F10 melanoma and MC38 colon carcinoma xenograft models. The B16F10 and MC38 cells were resuspended in saline (1.5 × 10^6 cells/0.2 mL saline) and injected subcutaneously into the right flanks of each mouse on day 0. The treated mice received once-daily oral administration of IMMH-010 maleate (1.25, 2.5, 5, and 10 mg/kg, n = 10) by oral gavage (PO) for 19 consecutive days, whereas the control mice received vehicle (0.5% carboxymethyl cellulose, n = 10). The mice in the positive control group received the anti-mouse PD-L1 antibody (696618M2, Bio X Cell, West Lebanon, NH, USA) at 10 mg/kg intraperitoneally every 3 days (n = 10). The first-line antineoplastic drug cyclophosphamide (CTX) was administered at doses of 80 and 40 mg/kg weekly in the B16F10 and MC38 models (n = 10), respectively. After the last treatment, on day 19, the mice were sacrificed, and the tumor and spleen were stripped and weighed. The tumor growth inhibition (TGI) was calculated as TGI = (1 − treatment group tumor weight/vehicle group tumor weight) × 100.

[2] = PK study in male cynomolgus monkeys; format: in vivo, cynomolgus monkey; details: cynomolgus monkey, plasma, single oral IMMH-010 maleate 5 mg/kg
Description: IMMH-010 maleate was suspended with 0.5% carboxymethyl cellulose to make a 1 mg/mL suspension for PO gavage. Four male cynomolgus monkeys received a single oral dose of IMMH-010 maleate (5 mg/kg). Serial blood samples were collected upto 48 h. The plasma was separated and the plasma concentrations of IMMH-010 and YPD-29B were determined by LC-MS/MS.
LC-MS/MS was performed using a triple quadrupole mass spectrometer (API 4000, AB Sciex, Framingham, MA, USA) with an ultra-performance liquid chromatography system (LC-30A, Shimadzu, Kyoto, Japan). Analyst 1.6.2 software (AB Sciex) was used for data acquisition and analysis. Mobile phase A was 1 mM ammonium acetate and mobile phase B was methanol. The mobile phase was delivered with the following gradient elution profile: 0–2.8 min, 70% B; 2.9 min, 85% B; 3 min, 90% B; 3.1–6.8 min, 100% B; 6.9–12 min, 70% B. The flow rate was 0.3 mL/min, and the column oven was maintained at 35 °C. The specific transitions monitored were 641.3 → 494.2 for IMMH-010, 597 → 155 for YPD-29B, 512 → 247 for M3, and 524 → 246 for M4.
as §1

CES2 = target: T1, CES2 (Homo sapiens, UniProt O00748); assay: IMMH-010 hydrolysis by recombinant human CES2; format: in vitro ADME; set-up: purchased Cypex Ltd. (Dundee, United Kingdom); details: 10 μM, CES2 0.1 mg/mL, 15 min, 37 °C
T1 sequence (O00748 27-559): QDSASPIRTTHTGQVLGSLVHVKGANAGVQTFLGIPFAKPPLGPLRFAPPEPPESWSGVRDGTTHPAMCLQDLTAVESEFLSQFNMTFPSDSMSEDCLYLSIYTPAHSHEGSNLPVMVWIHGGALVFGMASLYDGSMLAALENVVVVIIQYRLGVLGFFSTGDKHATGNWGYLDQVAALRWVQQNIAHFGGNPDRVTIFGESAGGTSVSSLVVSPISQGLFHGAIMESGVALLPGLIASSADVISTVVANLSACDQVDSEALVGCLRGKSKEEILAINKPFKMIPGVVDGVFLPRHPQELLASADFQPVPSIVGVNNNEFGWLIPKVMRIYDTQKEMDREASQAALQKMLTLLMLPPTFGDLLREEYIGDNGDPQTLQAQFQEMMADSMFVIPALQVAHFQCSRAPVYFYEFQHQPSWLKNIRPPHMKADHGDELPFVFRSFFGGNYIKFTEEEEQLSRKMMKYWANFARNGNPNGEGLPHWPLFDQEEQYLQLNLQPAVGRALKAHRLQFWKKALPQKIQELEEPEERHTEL
Description: To verify the role of CES1, CES2, and AADAC in human metabolism of […]-010 (10 μM) was incubated individually with recombinant human CES1, CES2, and AADAC (0.1 mg protein/mL) at 37 °C for 15 min. Lidocaine (500 μM), CPT-11 (2 μM), and phenacetin (1 mM), which are substrates of CES1, CES2, and AADAC, were used as positive controls.

[3] = MC38, IMMH-010 maleate 1.25 mg/kg PO once daily 19 days
[4] = MC38, IMMH-010 maleate 2.5 mg/kg PO once daily 19 days
[5] = MC38, IMMH-010 maleate 5 mg/kg PO once daily 19 days
[6] = MC38, IMMH-010 maleate 10 mg/kg PO once daily 19 days

CC(C)OC(=O)[C@H](CO)NCc1cc(Cl)c(OCc2cccc(-c3ccccc3)c2Br)cc1OCc1cccnc1 [IMMH-010]
estimated CLhep ([1]; from dog liver S9): 36.4 mL/min/kg | half-life at 10 μM ([1]; pH 7.4, dog liver S9 0.5 mg protein/mL, 10 μM, NADPH): 4.9 min | Tumor Weight (g) X ± SD (MC38 colon carcinoma; [3]): 1.03 ± 0.65 g | Tumor Weight TGI (%) (MC38 colon carcinoma; [3]): 40% | Tumor Weight (g) X ± SD (MC38 colon carcinoma; [4]): 1.13 ± 0.78 g | Tumor Weight TGI (%) (MC38 colon carcinoma; [4]): 34% | Tumor Weight (g) X ± SD (MC38 colon carcinoma; [5]): 0.42 ± 0.39 g | Tumor Weight TGI (%) (MC38 colon carcinoma; [5]): 75% | Tumor Weight (g) X ± SD (MC38 colon carcinoma; [6]): 0.73 ± 0.54 g | Tumor Weight TGI (%) (MC38 colon carcinoma; [6]): 57% | AUC [2]: 47.9 ng·h/mL | Cmax [2]: 9.46 ng/mL | half-life ([2]; read-out: mean t1/2β in plasma (converted)): 5.16 h | Tmax ([2]; read-out: observed time to peak concentration): ≤ 1.5 h | remaining amount of IMMH-010 (CES2): 94.2%

— paper PMC8143347, “Metabolism and Interspecies Variation of IMMH-010, a Programmed Cell Death Ligand 1 Inhibitor Prodrug” (Pharmaceutics, 2021)
